Results: patent US20240131168A1, “NAPHTHALENE RING-CONTAINING COMPOUND, PHARMACEUTICAL COMPOSITION CONTAINING SAME, AND USE THEREOF” (JIANGSU YAHONG MEDITECH CO., LTD., priority 2021, published 2024)

Molecular target: T1, ERα (Homo sapiens, UniProt P03372)
T1 construct: MCF-7 (ATCC; Cat. No.: HTB-22), a Luminal A breast cancer cell; culture medium EMEM; host or cells: MCF-7
T1 sequence (P03372 1-595): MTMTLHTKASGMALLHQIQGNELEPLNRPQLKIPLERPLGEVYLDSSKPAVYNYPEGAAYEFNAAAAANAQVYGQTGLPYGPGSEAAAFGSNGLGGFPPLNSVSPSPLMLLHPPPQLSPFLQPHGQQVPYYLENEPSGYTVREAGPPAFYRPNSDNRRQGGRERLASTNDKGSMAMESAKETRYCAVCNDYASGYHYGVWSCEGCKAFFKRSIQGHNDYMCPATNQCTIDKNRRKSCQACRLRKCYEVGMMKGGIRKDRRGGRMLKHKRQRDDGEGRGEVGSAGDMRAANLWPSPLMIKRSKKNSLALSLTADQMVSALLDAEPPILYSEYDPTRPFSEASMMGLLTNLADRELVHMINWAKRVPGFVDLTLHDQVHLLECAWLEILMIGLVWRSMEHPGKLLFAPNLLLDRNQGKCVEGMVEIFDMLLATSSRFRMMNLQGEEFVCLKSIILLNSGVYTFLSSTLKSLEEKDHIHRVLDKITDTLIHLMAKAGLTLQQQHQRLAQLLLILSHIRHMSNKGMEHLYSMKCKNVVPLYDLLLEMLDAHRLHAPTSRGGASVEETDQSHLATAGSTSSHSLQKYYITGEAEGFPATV
Test: iELISA of ER degradation in MCF-7 cells (Effect Example 1)
Format: cell-based
Conditions: MCF-7 iELISA, processing time 4 hours, starting concentration 1 μM; for Dmax: MCF7; for DC50: read-out: DC50 (drug concentration corresponding to 50% protein degradation)
Source text: 1. Cell Line • Breast cancer cell line and its culture medium: • MCF-7 (ATCC; Cat. No.: HTB-22), a Luminal A breast cancer cell; culture medium EMEM.
2. Reagents • Culture medium EMEM (Gibco, 1964507) • Fetal bovine serum (Gibco, 10091148) • Penicillin-streptomycin double antibody (Gibco, S110JV) • DPBS (Gibco, 14190-144) • CellTiter-Glo® assay kit (Promega, G7573) • Trypsin (0.25%) (Gibco, 25200-056) • DMSO (Sigma, D2650)
3. Instruments • Biosafety cabinet (AIRTECH, BSC-1300A II) • Automated cell counter (Life Technologies, countess II) • Multifunctional microplate reader (Biotek, H1FM) • Orbital shaker (Hangzhou Allsheng Instruments Co., Ltd., OS-100) • XLFIT 5.3 (Inforstack Shanghai Co., Ltd.)
For this test method, the following experiments were performed in a biosafety cabinet, with the specific steps as follows: • (1) On the first day, cells were inoculated in a 96-well plate, the previous culture medium was poured off, 5 mL of DPBS was added to wash the cells, and then DPBS was pipetted and discarded. 1 mL of trypsin (0.25%) was then added. The plate was digested in a 37° C., 5% CO2 cell incubator for about 2 to 5 minutes and then taken out. A new corresponding culture medium was added, and pipetted up and down to resuspend the cells evenly. The cells were then counted using an automated cell counter. • (2) Each cell was inoculated in columns 1 to 12 of a 96-well plate (Corning, Cat. No.: 356690) at a density of 30,000 cells per well in 100 μL of culture medium. The plate was then placed in a 37° C., 5% CO2 incubator for 24 hours. • (3) On the second day, the compound of the present disclosure was 4-fold serially diluted to 10 dose points starting at 1 μM. 10 μL of the serially diluted compound was pipetted and added to 100 μL of cells in columns 1 to 10, and 10 μL of the corresponding culture medium containing 0.33 v % DMSO was added to both columns 11 and 12. The plate was incubated in a 37° C., 5% CO2 incubator for 4 hours (Note: column 11 was used as a MIN well without compound and primary antibody but with secondary antibody; column 12 was used as a MAX well without compound but with primary antibody and secondary antibody). • (4) The culture medium was then removed. The cells were washed once with 100 µL of DPBS, and fixed with 100 μL of 1 v % formaldehyde (CST; Cat. No.: 12606) fixative at room temperature for 30 minutes. • (5) The fixative was removed. The cells were washed once with 100 μL of DPBS, and permeabilized with 100 μL of 80 v % pre-cooled methanol (Jiazu-chemical; Cat. No.: 67-56-1) at 4° C. for 15 minutes. • (6) Methanol was removed, and the cells were washed once with 100 μL of DPBS. The plate was added with 100 μL of primary antibody (1:5000, a volume ratio of primary antibody to BSA; manufacturer of primary antibody: Invitrogen, Cat. No.: MA5-14501), and incubated at 4° C. overnight. • (7) Primary antibody was removed, and the cells were washed three times with […] of DPBS. The plate was added with 100 μL of secondary antibody (1:2500, a volume ratio of secondary antibody to BSA; manufacturer of secondary antibody: Univ, Cat. No.: abs20002), and incubated at room temperature for 1 hour. • (8) Secondary antibody was removed, and the cells were washed three times with […] of DPBS. The plate was added with 100 μL of tetramethylbenzidine (TMB) (CST; Cat. No.: 7004), and incubated at room temperature for 1 hour. • (9) The plate was added with 100 μL of stop buffer (CST; Cat. No.: 7002), and incubated at room temperature for 10 minutes. The OD450 signal value was detected with a multifunctional microplate reader, and finally, the degradation effect of the compound of the present disclosure on ER was plotted by XLFIT software, and the DC50 value of the compound of the present disclosure (drug concentration corresponding to 50% protein degradation) was calculated; Dmax=[(the highest level of ERα−the lowest level of ERα)/(the highest level of ERα)].

Row | SMILES | Dmax | DC50
1 | CS(=O)(=O)c1ccc(-c2ccc3cc(O)ccc3c2Oc2ccc(OCCOCCOCCN3CCN(c4ccc5c(c4)CN(C4CCC(=O)NC4=O)C5=O)CC3)cc2)cc1 (centres unmarked) [Compound D30] | 35% | 
2 | CS(=O)(=O)c1ccc(-c2ccc3cc(O)ccc3c2Oc2ccc(OCCOCCOCCN3CCN(c4ccc5c(c4)C(=O)N(C4CCC(=O)NC4=O)C5)CC3)cc2)cc1 (centres unmarked) [Compound D22, 3-(6-(4-(2-(2-(2-(4-((6-hydroxy-2-(4-(methylsulfonyl)phenyl)naphthalen-1-yl)oxy)phenoxy)ethoxy)ethoxy)ethyl)piperazin-1-yl)-1-oxoisoindolin-2-yl)piperidine-2,6-dione] | 54% | 4.9 nM
3 | C[C@@H]1CN(CCOCC(=O)N2CCN(c3ccc4c(c3)C(=O)N(C3CCC(=O)NC3=O)C4=O)CC2)[C@@H](C)CN1CCOc1ccc(Oc2c(-c3ccc(S(C)(=O)=O)cc3)ccc3cc(O)ccc23)cc1 (stereo partly drawn) [Compound D15, 2-(2,6-dioxopiperidin-3-yl)-5-(4-(2-(2-((2S,5R)-4-(2-(4-((6-hydroxy-2-(4-(methylsulfonyl)phenyl)naphthalen-1-yl)oxy)phenoxy)ethyl)-2,5-dimethylpiperazin-1-yl)ethoxy)acetyl)piperazin-1-yl)isoindoline-1,3-dione] | 60% | 7.6 nM
4 | CS(=O)(=O)c1ccc(-c2ccc3cc(O)ccc3c2Oc2ccc(OCCOCCOCCOCCN3CCN(c4ccc5c(c4)C(=O)N(C4CCC(=O)NC4=O)C5)CC3)cc2)cc1 (centres unmarked) [Compound D21] | 69% | 7.5 nM
5 | CCN(CCOCCOCCN1CCN(c2ccc3c(c2)C(=O)N(C2CCC(=O)NC2=O)C3=O)CC1)CCOc1ccc(Oc2c(-c3ccc(S(C)(=O)=O)cc3)ccc3cc(O)ccc23)cc1 (centres unmarked) [Compound D28, 2-(2,6-dioxopiperidin-3-yl)-5-(4-(2-(2-(2-(ethyl(2-(4-((6-hydroxy-2-(4-(methylsulfonyl)phenyl)naphthalen-1-yl)oxy)phenoxy)ethyl)amino)ethoxy)ethoxy)ethyl)piperazin-1-yl)isoindoline-1,3-dione] | 34% | 
6 | C[C@@H]1CN(CCOc2ccc(Oc3c(-c4ccc(S(C)(=O)=O)cc4)ccc4cc(O)ccc34)cc2)[C@@H](C)CN1CCOCC(=O)N1CCN(c2ccc3c(c2)CN(C2CCC(=O)NC2=O)C3=O)CC1 (stereo partly drawn) [Compound D9, 3-(5-(4-(2-(2-((2R,5S)-4-(2-(4-((6-hydroxy-2-(4-(methylsulfonyl)phenyl)naphthalen-1-yl)oxy)phenoxy)ethyl)-2,5-dimethylpiperazin-1-yl)ethoxy)acetyl)piperazin-1-yl)-1-oxoisoindolin-2-yl)piperidine-2,6-dione] | 48% | 
7 | CCN(CCCCCN(C)CC(=O)N1CCN(c2ccc3c(c2)C(=O)N(C2CCC(=O)NC2=O)C3=O)CC1)CCOc1ccc(Oc2c(-c3ccc(S(C)(=O)=O)cc3)ccc3cc(O)ccc23)cc1 (centres unmarked) [Compound D31, 2-(2,6-dioxopiperidin-3-yl)-5-(4-(N-(5-(ethyl(2-(4-((6-hydroxy-2-(4-(methylsulfonyl))phenyl)naphthalen-1-yl)oxy)phenoxy)ethyl)aminopentyl)-N-methylglycyl)piperazin-1-yl)isoindoline-1,3-dione] | 35% | 
8 | CS(=O)(=O)c1ccc(-c2ccc3cc(O)ccc3c2Oc2ccc(N3CCN(CCCCCOCC(=O)N4CCN(c5ccc6c(c5)CN(C5CCC(=O)NC5=O)C6=O)CC4)CC3)cc2)cc1 (centres unmarked) [Compound D11, 3-(5-(4-(2-((5-(4-(4-((6-hydroxy-2-(4-(methylsulfonyl)phenyl)naphthalen-1-yl)oxy)phenyl)piperazin-1-yl)pentyl)oxy)acetyl)piperazin-1-yl)-1-oxoisoindolin-2-yl)piperidine-2,6-dione] | 40% | 
9 | CS(=O)(=O)c1ccc(-c2ccc3cc(O)ccc3c2Oc2ccc(OCCOCCOCCOCCOc3ccc4c(c3)C(=O)N(C3CCC(=O)NC3=O)C4)cc2)cc1 (centres unmarked) [Compound D35, 3-(6-(2-(2-(2-(2-(4-((6-hydroxy-2-(4-(methylsulfonyl)phenyl)naphthalen-1-yl)oxy)phenoxy)ethoxy)ethoxy)ethoxy)ethoxy)-1-oxoisoindolin-2-yl)piperidine-2,6-dione] | 32% | 
10 | CS(=O)(=O)c1ccc(-c2ccc3cc(O)ccc3c2Oc2ccc(OCCCCN3CCN(c4ccc5c(c4)CN(C4CCC(=O)NC4=O)C5=O)CC3)cc2)cc1 (centres unmarked) [Compound D59, 3-(5-(4-(4-(4-((6-hydroxy-2-(4-(methylsulfonyl)phenyl)naphthalen-1-yl)oxy)phenoxy)butyl)piperazin-1-yl)-1-oxoisoindolin-2-yl)piperidine-2,6-dione] | 67% | 0.5 nM
11 | CCN(CCOc1ccc(Oc2c(-c3ccc(S(C)(=O)=O)cc3)ccc3cc(O)ccc23)cc1)CC(=O)N1CCN(c2ccc3c(c2)C(=O)N(C2CCC(=O)NC2=O)C3=O)CC1 (centres unmarked) [Compound D8, 2-(2,6-dioxopiperidin-3-yl)-5-(4-(N-ethyl-N-(2-(4-((6-hydroxy-2-(4-(methylsulfonyl)phenyl)naphthalen-1-yl)oxy)phenoxy)ethyl)glycyl)piperazin-1-yl)isoindoline-1,3-dione] | 43% | 
12 | CS(=O)(=O)c1ccc(-c2ccc3cc(O)ccc3c2Oc2ccc(OCCOCCOCCOCCN3CCN(c4ccc5c(c4)C(=O)N(C4CCC(=O)NC4=O)C5=O)CC3)cc2)cc1 (centres unmarked) [Compound D19] | 47% | 
13 | CCN(CCOc1ccc(Oc2c(-c3ccc(S(C)(=O)=O)cc3)ccc3cc(O)ccc23)cc1)C(=O)c1ccc(CCC2CCN(C3CCN(c4ccc5c(c4)C(=O)N(C4CCC(=O)NC4=O)C5=O)CC3)CC2)cc1 (centres unmarked) [Compound D34, 4-(2-(1′-(2-(2,6-dioxopiperidin-3-yl)-1,3-dioxoisoindolin-5-yl)-[1,4′-bipiperidin]-4-yl)ethyl)-N-ethyl-N-(2-(4-((6-hydroxy-2-(4-(methylsulfonyl)phenyl)naphthalen-1-yl)oxy)phenoxy)ethyl)benzamide] | 45% | 
